# From ChEMBL document CHEMBL4414569, “Myxochelin- and Pseudochelin-Derived Lipoxygenase Inhibitors from a Genetically Engineered Myxococcus xanthus Strain” (J Nat Prod, 2019)
# Activity calls are given as the source filed them. The rule behind the calls is not given here.
# Columns and labels:
# [1] = molecular target: T1, Polyunsaturated fatty acid 5-lipoxygenase (Homo sapiens) (UniProt P09917); assay: Inhibition of recombinant human 5-lipoxygenase at <10 uM using arachidonic acid as substrate preincubated for 10 mins followed by susbtrate addition and measured after 10 mins by reverse phase HPLC method
# T1 sequence (whole entry): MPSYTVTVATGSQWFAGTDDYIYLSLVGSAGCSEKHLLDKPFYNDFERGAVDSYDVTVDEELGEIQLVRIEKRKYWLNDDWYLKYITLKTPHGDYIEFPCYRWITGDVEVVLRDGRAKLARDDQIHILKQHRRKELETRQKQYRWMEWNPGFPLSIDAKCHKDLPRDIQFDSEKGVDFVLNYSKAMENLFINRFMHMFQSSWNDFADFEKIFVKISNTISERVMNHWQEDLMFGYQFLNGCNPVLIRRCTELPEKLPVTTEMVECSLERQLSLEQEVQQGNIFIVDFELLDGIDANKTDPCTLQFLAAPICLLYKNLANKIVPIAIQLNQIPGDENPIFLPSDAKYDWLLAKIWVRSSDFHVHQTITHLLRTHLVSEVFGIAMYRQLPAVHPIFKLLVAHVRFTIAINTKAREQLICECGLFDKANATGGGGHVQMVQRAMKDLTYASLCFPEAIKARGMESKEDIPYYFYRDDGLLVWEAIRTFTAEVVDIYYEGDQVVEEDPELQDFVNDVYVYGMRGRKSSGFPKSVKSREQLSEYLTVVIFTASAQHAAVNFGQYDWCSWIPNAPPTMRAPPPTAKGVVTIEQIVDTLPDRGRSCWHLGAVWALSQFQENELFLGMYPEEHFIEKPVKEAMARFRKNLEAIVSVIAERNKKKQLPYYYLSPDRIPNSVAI
# [2] = molecular target: T2, Polyunsaturated fatty acid 5-lipoxygenase (Homo sapiens, UniProt P09917); assay: Inhibition of recombinant human 5-lipoxygenase using arachidonic acid as substrate preincubated for 10 mins followed by susbtrate addition and measured after 10 mins by reverse phase HPLC method
# T2 sequence (P09917 whole entry): T1 sequence (whole entry)
inhibition [1],IC50 [2],SMILES
inactive,> 10000 nM,NC[C@H](CCCCNC(=O)c1c(O)cccc1F)NC(=O)c1cccc(O)c1O
–,9300 nM,NC[C@H](CCCCNC(=O)c1cccc(O)c1O)NC(=O)c1c(O)cccc1F
–,1400 nM,NC[C@H](CCCCNC(=O)c1cccc(O)c1O)NC(=O)c1cccc(O)c1O
–,2200 nM,O=C(NCCCC[C@H]1CN=C(c2c(O)cccc2F)N1)c1cccc(O)c1O
–,900 nM,O=C(NCCCC[C@H]1CN=C(c2cccc(O)c2O)N1)c1cccc(O)c1O
–,2200 nM,O=C(NCCCC[C@H]1CN=C(c2cccc(O)c2O)N1)c1ccccc1O
–,10000 nM,NC[C@H](CCCCNC(=O)c1ccccc1O)NC(=O)c1cccc(O)c1O
–,1100 nM,O=C(NCCCC[C@H]1CN=C(c2cccc(O)c2O)N1)c1c(O)cccc1F
–,> 10000 nM,O=C(NCCCC[C@H]1CN=C(c2ccccc2O)N1)c1ccccc1O
–,1900 nM,O=C(NCCCC[C@@H](CO)NC(=O)c1cccc(O)c1O)c1cccc(O)c1O
inactive,> 10000 nM,NC[C@H](CCCCNC(=O)c1ccccc1O)NC(=O)c1ccccc1O
–,5600 nM,NC[C@H](CCCCNC(=O)c1cccc(O)c1O)NC(=O)c1ccccc1O
–,1500 nM,O=C(NCCCC[C@H]1CN=C(c2ccccc2O)N1)c1cccc(O)c1O
